Data reported in patent publication US9932329B2, “Benzimidazole derivatives as RLK and ITK inhibitors” (Principia Biopharma, Inc., priority 2014, dated 2018).
Structures can show the parent of a compound that is named as a salt. Where two headings read alike, the source gives them in different places.

How the values were obtained:
[1] = molecular target: RLK (Homo sapiens (Human), UniProt P42681); assay: Inhibition of RLK enzymatic activity, Caliper assay; format: biochemical
[2] = system: NFAT-bla Jurkat cells; assay: cells; conditions: Homo sapiens, read-out: TCR-induced NFAT IC50
[3] = system: human PBMCs; assay: cells; conditions: PBMC, read-out: CD3/CD28-induced IL-2 IC50
[4] = system: murine Th17 cells; assay: Differentiation of murine Th17 cells from CD4+ cells of TCR transgenic mice; format: cell-based, mouse; conditions: for IC50: Mus musculus, 72 h
Method: CD4+ cells from TCR transgenic mice (B10.A 5C.C7 TCR Tg (Rag-2^−/−)) were grown for three days in the presence of culture conditions that support the differentiation of the T cell population to Th17 cells (optimized concentrations of IL-6, TGF-β, IL-1β, IL-23, anti-mouse IL-2, anti-mouse IFN-γ, and anti-mouse IL-4 mAb). This was done in the presence of varying concentrations of Tool Compound A in the cell culture medium during the differentiation procedure. The cells were then activated with a combination of phorbol 12-myristate 13-acetate and ionomycin and the expression of the Th17 specific transcription factor RORγt and intracellular IL-17A was measured by flow cytometry.

[5] = system: human PBMC and B cell co-culture; assay: IL-17A secretion in PBMC-B cell co-cultures (BioMap BT system); format: cell-based
Text: (§1) FIG. 1 depicts the inhibition of intracellular expression of IL-17 in the presence of an ITK/RLK inhibitor (Tool Compound A) by a population of T-cells activated by anti-CD3/anti-CD-28. FIG. 2 depicts results from a BioMap® cell screening panel (performed by BioSeek, Inc., South San Francisco, Calif.) is a set of cell-based assays used to probe the cellular potency and selectivity of inhibitory compounds. A variety of cell culture and co-culture systems are stimulated with a range of molecules. Biomarker readouts are pathway activities in the culture systems. The biomarker readouts measured in each system are indicated along the x-axis. […] Three concentrations of Compound A were tested for the ability to modulate the various readouts. […] The TH2 system consists of primary human umbilical vein endothelial cells co-cultured with 14-day TH2 polarized CD4 T-cell blasts stimulated with TCR and IL-2.
(§2) Tool Compound A was tested in T cell co-cultures consisting of either a mixture of human primary peripheral blood mononuclear cells (PBMC) and B cells or human primary differentiated Th2 cells and human umbilical vein endothelial cells. The PBMC-B cell co-cultures were stimulated with TCR activators anti-CD3 and anti-CD28 and anti-IgM antibodies for 84 h to simulate B cell activation driven by T cell activation. Tool Compound A was tested at 10 μM, 1 μM, 100 nM and 10 nM. […]

[6] = system: human Th17 cells; assay: Intracellular IL-17 expression by purified human Th17 cells after anti-CD3/anti-CD28 activation; format: cell-based; conditions: single dose of 500 nM, 1 h exposure, 12 h activation, FACS
Text: A population of T cells enhanced in Th17 cells was produced using the EasySep™ human Th17 enrichment kit from StemCell Technologies. […]

[7] = system: human Th2 cell-HUVEC co-culture; assay: IL-17A secretion in primary Th2 cell-HUVEC co-cultures (BioMap TH2 system); format: cell-based; conditions: stimulated by TCR activation and interleukin-2
Text: as §1, §2

[8] = system: cell types that do not express ITK and RLK; assay: BioMap cell screening panel, cell types that do not express ITK and RLK; format: cell-based; conditions: data not shown
Text: as §1

[9] = ATP at Km (100 μM), 15 min pre-incubation, 3 h reaction

RLK, sequence (P42681 whole entry): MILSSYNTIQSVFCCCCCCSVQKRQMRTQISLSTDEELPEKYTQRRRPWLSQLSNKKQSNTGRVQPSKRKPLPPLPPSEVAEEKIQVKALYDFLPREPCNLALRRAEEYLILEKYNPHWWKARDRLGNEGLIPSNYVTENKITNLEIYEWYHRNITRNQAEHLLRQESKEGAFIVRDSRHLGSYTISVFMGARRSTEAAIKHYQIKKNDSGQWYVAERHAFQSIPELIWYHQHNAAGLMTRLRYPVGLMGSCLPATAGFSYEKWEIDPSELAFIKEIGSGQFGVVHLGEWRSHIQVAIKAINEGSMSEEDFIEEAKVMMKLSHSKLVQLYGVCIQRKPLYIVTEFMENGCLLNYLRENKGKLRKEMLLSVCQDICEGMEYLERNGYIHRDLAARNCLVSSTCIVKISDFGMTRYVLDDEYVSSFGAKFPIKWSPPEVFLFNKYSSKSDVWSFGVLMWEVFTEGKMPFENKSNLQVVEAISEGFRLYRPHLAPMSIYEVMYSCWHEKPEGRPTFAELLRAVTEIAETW

Row | SMILES | IC50 [1, 9] [nM] | IC50 [2] [nM] | IC50 [3] [nM] | other results
1 | C=CC(=O)N1CCC[C@@H]1Cn1c(NC(=O)c2ccc(-c3cnco3)s2)nc2cc(CN[C@@H](C)CO)ccc21 [Example 12, N-(1-(((R)-1-acryloylpyrrolidin-2-yl)methyl)-5-((((S)-1-hydroxypropan-2-yl)amino)methyl)-1H-benzo[d]imidazol-2-yl)-5-(oxazol-5-yl)thiophene-2-carboxamide] | 0.3 | 5 | 4 | 
2 | C=CC(=O)N1CCC[C@@H]1Cn1c(NC(=O)c2ccc(-c3cnco3)s2)nc2cc(CN[C@@H](CO)C(C)(C)C)ccc21 [Example 11, N-(1-(((R)-1-acryloylpyrrolidin-2-yl)methyl)-5-((((R)-1-hydroxy-3,3-dimethylbutan-2-yl)-amino)-methyl)-1H-benzo[d]imidazol-2-yl)-5-(oxazol-5-yl)thiophene-2-carboxamide] | 0.5 |  |  | 
3 | COCC(C)NCc1ccc2c(c1)nc(NC(=O)c1ccc(-c3cnco3)s1)n2C[C@H]1CCCN1C(=O)C(C#N)=CC(C)(C)C (stereo partly drawn) [Example 7, N-1-(((R)-1-(2-cyano-4,4-dimethylpent-2-enoyl)pyrrolidin-2-yl)methyl)-5-((((R)-1-methoxypropan-2-yl)amino)methyl)-1H-benzo[d]imidazol-2-yl)-5-(oxazol-5-yl)-thiophene-2-carboxamide formate] | 2.1 | 101 | 109 | 
4 | C[C@H](NCc1ccc2c(c1)nc(NC(=O)c1ccc(-c3cnco3)s1)n2C[C@H]1CCCN1C(=O)C(C#N)=CC(C)(C)C)C(C)(C)C [Example 15, N-(1-(((R)-1-(2-cyano-4,4-dimethylpent-2-enoyl)pyrrolidin-2-yl)methyl)-5-((((S)-3,3-dimethyl-butan-2-yl)amino)methyl)-1H-benzo[d]imidazol-2-yl)-5-(oxazol-5-yl)thiophene-2-carboxamide] | 1.2 |  |  | 
5 | C[C@H](NCc1ccc2c(c1)nc(NC(=O)c1ccc(C(F)F)s1)n2C[C@H]1CCCN1C(=O)C(C#N)=CC(C)(C)C)C(C)(C)C [Tool Compound A, N-(1-(((R)-1-(2-cyano-4,4-dimethylpent-2-enoyl)pyrrolidin-2-yl)methyl)-5-((((S)-3,3-dimethylbutan-2-yl)amino)methyl)-1H-benzo[d]imidazol-2-yl)-5-(difluoromethyl)thiophene-2-carboxamide] |  |  |  | IC50 [1]: 1 nM; IC50 ([4]; three days under Th17 conditions, PMA/ionomycin, flow cytometry, read-out: Midpoint of dose response - Th17: Intracellular cytokine expression (IL-17)): < 25 nM; IC50 ([4]; three days under Th17 conditions, PMA/ionomycin, flow cytometry, read-out: Midpoint of dose response - Th17: Transcription factor expression (RORγt)): ~25 nM; IC50 ([4]; three days under Th17 differentiation conditions, read-out: Midpoint of dose response - Th17: Proliferation): < 25 nM; Concentration that blocks expression of Th17 differentiation markers (RORγt and IL-17A) ([4]; cultures polarizing murine T cells into Th17): ≤ 25 nM; IL-17A secretion into culture supernatant ([5]; 10 μM, 1 μM, 100 nM and 10 nM, anti-CD3, anti-CD28 and anti-IgM for 84 h): inhibited in a dose dependent manner; Release of soluble proinflammatory cytokines IL17A, IL17F and TNFα by activated T cells ([5]; BioMap panel, three concentrations): inhibits release; TCR-induced intracellular expression of IL-17 [6]: completely blocked; IL-17A secretion [7]: inhibited IL-17A secretion in a dose dependent manner
6 | C=CC(=O)N1CCC[C@@H]1Cn1c(NC(=O)c2ccc(-c3cnco3)s2)nc2cc(CNCC3CC3)ccc21 [Example 9, (R)-N-(1-((1-acryloylpyrrolidin-2-yl)methyl)-5-(((cyclopropylmethyl)amino)methyl)-1H-benzo[d]imidazol-2-yl)-5-(oxazol-5-yl)thiophene-2-carboxamide] | 0.3 | 4 | 4 | 
7 | C=CC(=O)N1CCC[C@@H]1Cn1c(NC(=O)c2ccc(-c3cnco3)s2)nc2cc(CN[C@H](C)CO)ccc21 [Example 13, N-(1-(((R)-1-acryloylpyrrolidin-2-yl)methyl)-5-((((R)-1-hydroxypropan-2-yl)amino)methyl)-1H-benzo[d]imidazol-2-yl)-5-(oxazol-5-yl)thiophene-2-carboxamide] | 0.3 |  |  | 
8 | CC(C)(C)C=C(C#N)C(=O)N1CCC[C@@H]1Cn1c(NC(=O)c2ccc(-c3cnco3)s2)nc2cc(CNCC3CC3)ccc21 [Example 2, (R)-N-(1-((1-(2-cyano-4,4-dimethylpent-2-enoyl)pyrrolidin-2-yl)methyl)-5-(((cyclopropyl-methyl)-amino)methyl)-1H-benzo[d]imidazol-2-yl)-5-(oxazol-5-yl)thiophene-2-carboxamide formate] |  | 536 | 81 | 
9 | CC(C)(C)C=C(C#N)C(=O)N1CCC[C@@H]1Cn1c(NC(=O)c2ccc(-c3cnco3)s2)nc2cc(CO)ccc21 [Example 1, (R)-N-(1-((1-(2-cyano-4,4-dimethylpent-2-enoyl)pyrrolidin-2-yl)methyl)-5-(hydroxymethyl)-1H-benzo[d]imidazol-2-yl)-5-(oxazol-5-yl)thiophene-2-carboxamide] | 1.2 | 50 | 71 | 
10 | C=CC(=O)N1CCC[C@@H]1Cn1c(NC(=O)c2ccc(C(F)F)s2)nc2cc(CN[C@@H](C)C(C)(C)C)ccc21 [PRN694] |  |  |  | Inhibitory activity in cell types that do not express ITK and RLK [8]: essentially no inhibitory activity
11 | C=CC(=O)N1CCC[C@@H]1Cn1c(NC(=O)c2ccc(-c3cnco3)s2)nc2cc(CN[C@H](CO)C(C)(C)C)ccc21 [Example 10, N-(1-(((R)-1-acryloylpyrrolidin-2-yl)methyl)-5-((((S)-1-hydroxy-3,3-dimethylbutan-2-yl)-amino)methyl)-1H-benzo[d]imidazol-2-yl)-5-(oxazol-5-yl)thiophene-2-carboxamide] | 0.2 |  |  | 
